Tested on: human intestinal epithelial cells
Test: Epithelial transport function (Na+/H+ exchange, glucose transport)
Assay type: cell-based
Description: The resistance of PEG-cultured human intestinal epithelial cells to the barrier-disrupting effects of P. aeruginosa, as judged by the maintenance of TEER, offers a practical approach to stabilizing tight junctional barrier function in the face of a challenge from invading pathogens. Further evidence of the therapeutic value of PEG 15-20 is that epithelial transport function (Na^+/H^+ exchange, glucose transport) is unaffected by this compound.

polyethylene glycol [PEG 15-20]
epithelial transport function (Na+/H+ exchange, glucose transport): unaffected

— US9549946B2, “Materials and methods for preventing and treating microbe-mediated epithelial disorders” (priority 2002, dated 2017)
